Reference: patent US12077503B2, “Substituted cyclic amides and their use as herbicides” (FMC CORPORATION, priority 2015, dated 2024)

Legend:
Type in all cases: in vivo
[1] = tested on: barnyardgrass (Echinochloa crus-galli); test: Test G Post-Emergence Protocol; settings: Echinochloa crus-galli, post-emergence, 312 h; for pest or weed control at 15.625 g/ha: 15.625 g ai/ha, evaluated after 13 days (100=total damage to plant; 0=no damage to plant), read-out: Barnyardgrass damage rating; for pest or weed control at 62.5 g/ha: 62.5 g ai/ha, read-out: Barnyardgrass damage rating (100=total damage to plant; 0=no damage to plant); for pest or weed control at 62.5 g/ha / pest or weed control at 250 g/ha: evaluated after 13 days; for pest or weed control at 250 g/ha: 250 g ai/ha, read-out: damage to plant, Barnyardgrass (100=total damage to plant; 0=no damage to plant)
Method in brief: (§1)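 Eight days post-sowing, plants received a spray of test compound (acetone/water 50:50, 0.5% Tween 20) at 15.625, 62.5 or 250 g/ha. Glasshouse regime thereafter: 24/16 °C, 14 h light, 65% humidity. Assessment after 13 days on a 0–100 damage scale.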

[2] = tested on: redroot pigweed (Amaranthus retroflexus); test: Test G Post-Emergence Protocol; settings: Amaranthus retroflexus, post-emergence, 312 h; for pest or weed control at 15.625 g/ha: 15.625 g ai/ha, evaluated after 13 days (100=total damage to plant; 0=no damage to plant), read-out: Pigweed, Redroot damage rating; for pest or weed control at 62.5 g/ha: 62.5 g ai/ha, read-out: Pigweed, Redroot damage rating (100=total damage to plant; 0=no damage to plant); for pest or weed control at 62.5 g/ha / pest or weed control at 250 g/ha: evaluated after 13 days; for pest or weed control at 250 g/ha: 250 g ai/ha, read-out: damage to plant, Pigweed, Redroot (100=total damage to plant; 0=no damage to plant)
Method in brief: as §1

[3] = tested on: velvetleaf (Abutilon theophrasti); test: Test G Post-Emergence Protocol; settings: Abutilon theophrasti, post-emergence, 312 h; for pest or weed control at 15.625 g/ha: 15.625 g ai/ha, evaluated after 13 days (100=total damage to plant; 0=no damage to plant), read-out: Velvetleaf damage rating; for pest or weed control at 62.5 g/ha: 62.5 g ai/ha, read-out: Velvetleaf damage rating (100=total damage to plant; 0=no damage to plant); for pest or weed control at 62.5 g/ha / pest or weed control at 250 g/ha: evaluated after 13 days; for pest or weed control at 250 g/ha: 250 g ai/ha, read-out: damage to plant, Velvetleaf (100=total damage to plant; 0=no damage to plant)
Method in brief: as §1

[4] = tested on: ivy-leaved morning glory (Ipomoea hederacea); test: Test G Post-Emergence Protocol; settings: Ipomoea, post-emergence, 312 h; for pest or weed control at 15.625 g/ha: 15.625 g ai/ha, evaluated after 13 days (100=total damage to plant; 0=no damage to plant), read-out: Morningglory, Ivy-leaved damage rating; for pest or weed control at 62.5 g/ha: 62.5 g ai/ha, read-out: Morningglory, Ivy-leaved damage rating (100=total damage to plant; 0=no damage to plant); for pest or weed control at 62.5 g/ha / pest or weed control at 250 g/ha: evaluated after 13 days; for pest or weed control at 250 g/ha: 250 g ai/ha, read-out: damage to plant, Morningglory, Ivy-leaved (100=total damage to plant; 0=no damage to plant)
Method in brief: as §1

[5] = tested on: giant foxtail (Setaria faberi); test: Test G Post-Emergence Protocol; settings: Setaria faberi, post-emergence, 312 h; for pest or weed control at 15.625 g/ha: 15.625 g ai/ha, evaluated after 13 days (100=total damage to plant; 0=no damage to plant), read-out: Foxtail, Giant damage rating; for pest or weed control at 62.5 g/ha: 62.5 g ai/ha, read-out: Foxtail, Giant damage rating (100=total damage to plant; 0=no damage to plant); for pest or weed control at 62.5 g/ha / pest or weed control at 250 g/ha: evaluated after 13 days; for pest or weed control at 250 g/ha: 250 g ai/ha, read-out: damage to plant, Foxtail, Giant (100=total damage to plant; 0=no damage to plant)
Method in brief: as §1

corn (Zea mays) [6] = test: Test G Post-Emergence Protocol; settings: Zea mays, post-emergence, 312 h; for plant injury at 15.625 g/ha: 15.625 g ai/ha, evaluated after 13 days (100=total damage to plant; 0=no damage to plant), read-out: Corn damage rating; for plant injury at 62.5 g/ha: 62.5 g ai/ha, read-out: Corn damage rating (100=total damage to plant; 0=no damage to plant); for plant injury at 62.5 g/ha / plant injury at 250 g/ha: evaluated after 13 days; for plant injury at 250 g/ha: 250 g ai/ha, read-out: damage to plant, Corn (100=total damage to plant; 0=no damage to plant)
Method in brief: as §1

[7] = tested on: barnyardgrass (Echinochloa crus-galli); test: Test G Pre-Emergence Protocol; settings: Echinochloa crus-galli, pre-emergence, 312 h, evaluated after 13 days; for pest or weed control at 15.625 g/ha: 15.625 g ai/ha, read-out: Barnyard grass damage rating (100=total damage to plant; 0=no damage to plant); for pest or weed control at 62.5 g/ha: 62.5 g ai/ha, 100=total damage to plant, 0=no damage to plant, read-out: plant damage rating, Barnyardgrass; for pest or weed control at 250 g/ha: 250 g ai/ha, read-out: Barnyardgrass damage rating (100=total damage to plant; 0=no damage to plant)
Method in brief: (§2)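 Test compound in 0.5% Tween 20 acetone/water (50:50) was applied at three rates (15.625, 62.5, 250 g/ha) to soil sown one day earlier. After 13 days plants were scored for injury, where 0 means unaffected and 100 means completely damaged.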

[8] = tested on: redroot pigweed (Amaranthus retroflexus); test: Test G Pre-Emergence Protocol; settings: Amaranthus retroflexus, pre-emergence, 312 h, evaluated after 13 days; for pest or weed control at 15.625 g/ha: 15.625 g ai/ha; for pest or weed control at 15.625 g/ha / pest or weed control at 250 g/ha: read-out: Pigweed, Redroot damage rating (100=total damage to plant; 0=no damage to plant); for pest or weed control at 62.5 g/ha: 62.5 g ai/ha, 100=total damage to plant, 0=no damage to plant, read-out: plant damage rating, Pigweed, Redroot; for pest or weed control at 250 g/ha: 250 g ai/ha
Method in brief: as §2

[9] = tested on: velvetleaf (Abutilon theophrasti); test: Test G Pre-Emergence Protocol; settings: Abutilon theophrasti, pre-emergence, 312 h, evaluated after 13 days; for pest or weed control at 15.625 g/ha: 15.625 g ai/ha; for pest or weed control at 15.625 g/ha / pest or weed control at 250 g/ha: read-out: Velvetleaf damage rating (100=total damage to plant; 0=no damage to plant); for pest or weed control at 62.5 g/ha: 62.5 g ai/ha, 100=total damage to plant, 0=no damage to plant, read-out: plant damage rating, Velvetleaf; for pest or weed control at 250 g/ha: 250 g ai/ha
Method in brief: as §2

[10] = tested on: ivy-leaved morning glory (Ipomoea hederacea); test: Test G Pre-Emergence Protocol; settings: Ipomoea, pre-emergence, 312 h, evaluated after 13 days; for pest or weed control at 15.625 g/ha: 15.625 g ai/ha, read-out: Morning-glory, Ivy-leaved damage rating (100=total damage to plant; 0=no damage to plant); for pest or weed control at 62.5 g/ha: 62.5 g ai/ha, 100=total damage to plant, 0=no damage to plant, read-out: plant damage rating, Morningglory, Ivy-leaved; for pest or weed control at 250 g/ha: 250 g ai/ha, read-out: Morningglory, Ivy-leaved damage rating (100=total damage to plant; 0=no damage to plant)
Method in brief: as §2

[11] = tested on: giant foxtail (Setaria faberi); test: Test G Pre-Emergence Protocol; settings: Setaria faberi, pre-emergence, 312 h, evaluated after 13 days; for pest or weed control at 15.625 g/ha: 15.625 g ai/ha; for pest or weed control at 15.625 g/ha / pest or weed control at 250 g/ha: read-out: Foxtail, Giant damage rating (100=total damage to plant; 0=no damage to plant); for pest or weed control at 62.5 g/ha: 62.5 g ai/ha, 100=total damage to plant, 0=no damage to plant, read-out: plant damage rating, Foxtail, Giant; for pest or weed control at 250 g/ha: 250 g ai/ha
Method in brief: as §2

corn (Zea mays) [12] = test: Test G Pre-Emergence Protocol; settings: Zea mays, pre-emergence, 312 h, evaluated after 13 days; for plant injury at 15.625 g/ha: 15.625 g ai/ha; for plant injury at 15.625 g/ha / plant injury at 250 g/ha: read-out: Corn damage rating (100=total damage to plant; 0=no damage to plant); for plant injury at 62.5 g/ha: 62.5 g ai/ha, 100=total damage to plant, 0=no damage to plant, read-out: plant damage rating, Corn; for plant injury at 250 g/ha: 250 g ai/ha
Method in brief: as §2

SMILES	pest or weed control at 15.625 g/ha [1] [%]	pest or weed control at 62.5 g/ha [1] [%]	pest or weed control at 250 g/ha [1] [%]	pest or weed control at 15.625 g/ha [2] [%]	pest or weed control at 62.5 g/ha [2] [%]	pest or weed control at 250 g/ha [2] [%]	pest or weed control at 15.625 g/ha [3] [%]	pest or weed control at 62.5 g/ha [3] [%]	pest or weed control at 250 g/ha [3] [%]	pest or weed control at 15.625 g/ha [4] [%]	pest or weed control at 62.5 g/ha [4] [%]	pest or weed control at 250 g/ha [4] [%]	pest or weed control at 15.625 g/ha [5] [%]	pest or weed control at 62.5 g/ha [5] [%]	pest or weed control at 250 g/ha [5] [%]	plant injury at 15.625 g/ha (corn (Zea mays) [6]) [%]	plant injury at 62.5 g/ha (corn (Zea mays) [6]) [%]	plant injury at 250 g/ha (corn (Zea mays) [6]) [%]	pest or weed control at 15.625 g/ha [7] [%]	pest or weed control at 62.5 g/ha [7] [%]	further results
CN1C[C@H](c2ccc(C(F)(F)F)cc2)[C@@H](C(=O)Nc2ncc(Cl)cc2Cl)C1=O (racemic) [Compound 1435]	0	0	0	0	30	30	0	0	0	0	0	0	0	0	0	0	0	10	0	0	pest or weed control at 250 g/ha [7]: 0%; pest or weed control at 15.625 g/ha [8]: 0%; pest or weed control at 62.5 g/ha [8]: 0%; pest or weed control at 250 g/ha [8]: 0%; pest or weed control at 15.625 g/ha [9]: 0%; pest or weed control at 62.5 g/ha [9]: 0%; pest or weed control at 250 g/ha [9]: 0%; pest or weed control at 15.625 g/ha [10]: 0%; pest or weed control at 62.5 g/ha [10]: 0%; pest or weed control at 250 g/ha [10]: 0%; pest or weed control at 15.625 g/ha [11]: 0%; pest or weed control at 62.5 g/ha [11]: 0%; pest or weed control at 250 g/ha [11]: 0%; plant injury at 15.625 g/ha (corn (Zea mays) [12]): 0%; plant injury at 62.5 g/ha (corn (Zea mays) [12]): 0%; plant injury at 250 g/ha (corn (Zea mays) [12]): 0%
CN1C[C@H](c2ccc(C(F)(F)F)cc2)[C@@H](C(=O)Nc2ccc(C(F)(F)F)c(F)c2F)C1=O (racemic) [Compound 1451]	0	0	0	0	0	0	0	0	0	0	0	0	0	0	0	0	0	0	0	0	pest or weed control at 250 g/ha [7]: 0%; pest or weed control at 15.625 g/ha [8]: 0%; pest or weed control at 62.5 g/ha [8]: 0%; pest or weed control at 250 g/ha [8]: 0%; pest or weed control at 15.625 g/ha [9]: 0%; pest or weed control at 62.5 g/ha [9]: 0%; pest or weed control at 250 g/ha [9]: 0%; pest or weed control at 15.625 g/ha [10]: 0%; pest or weed control at 62.5 g/ha [10]: 0%; pest or weed control at 250 g/ha [10]: 0%; pest or weed control at 15.625 g/ha [11]: 0%; pest or weed control at 62.5 g/ha [11]: 0%; pest or weed control at 250 g/ha [11]: 0%; plant injury at 15.625 g/ha (corn (Zea mays) [12]): 0%; plant injury at 62.5 g/ha (corn (Zea mays) [12]): 0%; plant injury at 250 g/ha (corn (Zea mays) [12]): 0%
